Laboratory results reported in ChEMBL document CHEMBL3886330, “Substituted azoanthracene derivatives and intermediates for preparation thereof” (2015).

Biological target: Glucagon-like peptide 1 receptor (Homo sapiens, UniProt P43220)
Type: functional

Sequence of Glucagon-like peptide 1 receptor (P43220 whole entry): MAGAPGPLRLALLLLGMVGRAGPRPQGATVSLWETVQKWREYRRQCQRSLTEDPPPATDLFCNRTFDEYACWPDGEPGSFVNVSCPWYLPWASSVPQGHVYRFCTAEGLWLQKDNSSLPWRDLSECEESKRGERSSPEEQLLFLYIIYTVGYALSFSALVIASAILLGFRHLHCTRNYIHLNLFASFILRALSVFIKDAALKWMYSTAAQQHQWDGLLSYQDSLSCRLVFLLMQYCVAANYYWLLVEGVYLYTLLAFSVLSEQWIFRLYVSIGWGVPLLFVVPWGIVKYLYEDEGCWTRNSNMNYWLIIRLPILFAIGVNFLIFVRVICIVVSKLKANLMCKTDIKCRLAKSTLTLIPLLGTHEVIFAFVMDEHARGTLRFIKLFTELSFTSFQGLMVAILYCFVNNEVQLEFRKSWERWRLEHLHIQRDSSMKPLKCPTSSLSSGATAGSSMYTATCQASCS

`CCCNc1nc(C)c(S(=O)(=O)N2Cc3cc4c(cc3C[C@H]2C(=O)N[C@@H](Cc2ccc(-c3ccc(C#N)cc3)cc2)C(=O)O)OCC(c2ccc(OCc3ccc(Cl)c(Cl)c3)cc2)O4)s1` (stereo partly specified) and `Cc1nc(NCC2CC2)sc1S(=O)(=O)N1Cc2cc3c(cc2C[C@H]1C(=O)N[C@@H](Cc1ccc(-c2ccc(C#N)cc2)cc1)C(=O)O)OCC(c1ccc(OCc2ccc(Cl)c(Cl)c2)cc1)O3` (stereo partly specified) are within 1.5-fold of each other in EC50: 67 nM for the first, 75 nM for the second.

`CCCCOC(=O)N1Cc2cc3c(cc2C[C@H]1C(=O)N[C@@H](Cc1ccc(-c2ccnc(C)c2C)cc1)C(=O)O)OC[C@H](c1ccc(OCc2ccc(Cl)c(Cl)c2)cc1)O3` and `Cc1nccc(-c2ccc(C[C@H](NC(=O)[C@@H]3Cc4cc5c(cc4CN3C(=O)OCC(C)(C)C)O[C@@H](c3ccc(OCc4ccc(Cl)c(Cl)c4)cc3)CO5)C(=O)O)cc2)c1C` are within 1.5-fold of each other in EC50: 64 nM for the first, 87 nM for the second.

First: Cc1nccc(Oc2ccc(C[C@H](NC(=O)[C@@H]3Cc4cc5c(cc4CN3C(=O)OCC(C)C)O[C@@H](c3ccc(OCc4ccc(Cl)c(Cl)c4)cc3)CO5)C(=O)O)cc2)c1C
Second: Cc1nc(C(=O)N2Cc3cc4c(cc3C[C@H]2C(=O)N[C@@H](Cc2ccc(Oc3ccnc(C)c3C)cc2)C(=O)O)OC[C@H](c2ccc(OCc3ccc(Cl)c(Cl)c3)cc2)O4)co1
The EC50 of the first is 1.8-fold higher: 311 nM for the first, 177 nM for the second.

Compared with `Cc1nccc(-c2ccc(C[C@H](NC(=O)[C@@H]3Cc4cc5c(cc4CN3C(=O)N(C(C)C)C(C)C)O[C@@H](c3ccc(OCc4ccc(Cl)c(Cl)c4)cc3)CO5)C(=O)O)cc2)c1C`, `Cc1nccc(-c2ccc(C[C@H](NC(=O)[C@@H]3Cc4cc5c(cc4CN3S(C)(=O)=O)O[C@@H](c3ccc(OCc4ccc(Cl)c(Cl)c4)cc3)CO5)C(=O)O)cc2)c1C` is 3.7-fold higher in EC50: 73 nM for the first, 267 nM for the second.

Going from `CCNc1nc(C)c(S(=O)(=O)N2Cc3cc4c(cc3C[C@H]2C(=O)N[C@@H](Cc2ccc(-c3ccc(Cl)cc3)cc2)C(=O)O)OCC(c2ccc(OCc3ccc(Cl)c(Cl)c3)cc2)O4)s1` (stereo partly specified) to `CCNc1nc(C)c(S(=O)(=O)N2Cc3cc4c(cc3C[C@H]2C(=O)N[C@@H](Cc2ccc(-c3ccc(F)cc3)cc2)C(=O)O)OCC(c2ccc(OCc3ccc(Cl)c(Cl)c3)cc2)O4)s1` (stereo partly specified), the EC50 falls from 264 nM to 131 nM (2-fold).

Compared with `Cc1nccc(-c2ccc(C[C@H](NC(=O)[C@@H]3Cc4cc5c(cc4CN3C(=O)OCc3ccccc3)O[C@@H](c3ccc(OCc4ccc(Cl)c(Cl)c4)cc3)CO5)C(=O)O)cc2)c1C`, `CC[C@@H](NC(=O)N1Cc2cc3c(cc2C[C@H]1C(=O)N[C@@H](Cc1ccc(-c2ccnc(C)c2C)cc1)C(=O)O)OC[C@H](c1ccc(OCc2ccc(Cl)c(Cl)c2)cc1)O3)c1ccccc1` is 5.5-fold higher in EC50: 23 nM for the first, 126 nM for the second.

First: Cc1nc(C(=O)N2Cc3cc4c(cc3C[C@H]2C(=O)N[C@@H](Cc2ccc(-c3ccnc(C)c3C)cc2)C(=O)O)OC[C@H](c2ccc(OCc3ccc(Cl)c(Cl)c3)cc2)O4)c(C(F)(F)F)o1
Second: Cc1nccc(-c2ccc(C[C@H](NC(=O)[C@@H]3Cc4cc5c(cc4CN3C(=O)c3oc4ccccc4c3C)O[C@@H](c3ccc(OCc4ccc(Cl)c(Cl)c4)cc3)CO5)C(=O)O)cc2)c1C
The EC50 of the first is 4.1-fold lower: 42 nM for the first, 172 nM for the second. The first is the more potent here.

First: CC[C@@H](c1ccccc1)N1Cc2cc3c(cc2C[C@H]1C(=O)N[C@@H](Cc1ccc(-c2ccc(C#N)nc2)cc1)C(=O)O)OC[C@H](c1ccc(OCc2ccc(Cl)c(Cl)c2)cc1)O3
Second: CC[C@@H](c1ccccc1)N1Cc2cc3c(cc2C[C@H]1C(=O)N[C@@H](Cc1ccc(-c2ccnc(C)c2)cc1)C(=O)O)OC[C@H](c1ccc(OCc2ccc(Cl)c(Cl)c2)cc1)O3
The EC50 of the first is 7.7-fold higher: 154 nM for the first, 20 nM for the second. The second is the more potent here.

First: Cc1nccc(-c2ccc(C[C@H](NC(=O)[C@@H]3Cc4cc5c(cc4CN3C(=O)Nc3ccc(Cl)cc3)O[C@@H](c3ccc(OCc4ccc(Cl)c(Cl)c4)cc3)CO5)C(=O)O)cc2)c1C
Second: Cc1nccc(-c2ccc(C[C@H](NC(=O)[C@@H]3Cc4cc5c(cc4CN3C(=O)c3cccc(Cl)c3)O[C@@H](c3ccc(OCc4ccc(Cl)c(Cl)c4)cc3)CO5)C(=O)O)cc2)c1C
The EC50 of the first is 4.4-fold higher: 96 nM for the first, 22 nM for the second.

First: Cc1nc(C(=O)N2Cc3cc4c(cc3C[C@H]2C(=O)N[C@@H](Cc2ccc(-c3ccc(C#N)cc3)cc2)C(=O)O)OC[C@H](c2ccc(OCc3ccc(Cl)c(Cl)c3)cc2)O4)c(C)o1
Second: C[C@@H](NC(=O)N1Cc2cc3c(cc2C[C@H]1C(=O)N[C@@H](Cc1ccc(-c2ccc(C#N)cc2)cc1)C(=O)O)OC[C@H](c1ccc(OCc2ccc(Cl)c(Cl)c2)cc1)O3)c1ccccc1
The EC50 of the first is 1.8-fold lower: 156 nM for the first, 288 nM for the second.

Going from `CCc1cc(-c2ccc(C[C@H](NC(=O)[C@@H]3Cc4cc5c(cc4CN3[C@@H](CC)c3ccccc3)O[C@@H](c3ccc(OCc4ccc(Cl)c(Cl)c4)cc3)CO5)C(=O)O)cc2)ccn1` to `CCCc1cc(-c2ccc(C[C@H](NC(=O)[C@@H]3Cc4cc5c(cc4CN3[C@@H](CC)c3ccccc3)O[C@@H](c3ccc(OCc4ccc(Cl)c(Cl)c4)cc3)CO5)C(=O)O)cc2)ccn1`, the EC50 rises from 13 nM to 83 nM (6.4-fold).

Compared with `Cc1nc(NC2CCCC2)sc1S(=O)(=O)N1Cc2cc3c(cc2C[C@H]1C(=O)N[C@@H](Cc1ccc(-c2ccc(C#N)cc2)cc1)C(=O)O)OCC(c1ccc(OCc2ccc(Cl)c(Cl)c2)cc1)O3` (stereo partly specified), `Cc1ccc(COc2ccc(C3COc4cc5c(cc4O3)CN(S(=O)(=O)c3sc(N)nc3C)[C@H](C(=O)N[C@@H](Cc3ccc(-c4ccc(C#N)cc4)cc3)C(=O)O)C5)cc2)cc1Cl` (stereo partly specified) is 6.2-fold higher in EC50: 70 nM for the first, 434 nM for the second.

First: Cc1nccc(-c2ccc(C[C@H](NC(=O)[C@@H]3Cc4cc5c(cc4CN3C(=O)c3cnccn3)O[C@@H](c3ccc(OCc4ccc(Cl)c(Cl)c4)cc3)CO5)C(=O)O)cc2)c1C
Second: CC(=O)Nc1nc(C)c(S(=O)(=O)N2Cc3cc4c(cc3C[C@H]2C(=O)N[C@@H](Cc2ccc(-c3ccnc(C)c3C)cc2)C(=O)O)OC[C@H](c2ccc(OCc3ccc(Cl)c(Cl)c3)cc2)O4)s1
The EC50 of the first is 6.9-fold higher: 166 nM for the first, 24 nM for the second. The second is the more potent here.

Compared with `N#Cc1ccc(-c2ccc(C[C@H](NC(=O)[C@@H]3Cc4cc5c(cc4CN3C(=O)c3ccccc3)OC(c3ccc(OCc4ccc(Cl)c(Cl)c4)cc3)CN5)C(=O)O)cc2)cc1` (stereo partly specified), `N#Cc1ccc(-c2ccc(C[C@H](NC(=O)[C@@H]3Cc4cc5c(cc4CN3Cc3ccccc3C#N)OC(c3ccc(OCc4ccc(Cl)c(Cl)c4)cc3)CO5)C(=O)O)cc2)cc1` (stereo partly specified) is 1.6-fold higher in EC50: 410 nM for the first, 657 nM for the second.

First: CC[C@@H](c1ccccc1)N1Cc2cc3c(cc2C[C@H]1C(=O)N[C@@H](Cc1ccc(-c2ccnc(F)c2)cc1)C(=O)O)OC[C@H](c1ccc(OCc2ccc(Cl)c(Cl)c2)cc1)O3
Second: Cc1nccc(Oc2ccc(C[C@H](NC(=O)[C@@H]3Cc4cc5c(cc4CN3C(=O)N[C@H](C)c3ccccc3)O[C@@H](c3ccc(OCc4ccc(Cl)c(Cl)c4)cc3)CO5)C(=O)O)cc2)c1C
The EC50 of the first is 1.9-fold higher: 222 nM for the first, 115 nM for the second.

In the case of `Cc1nccc(-c2ccc(C[C@H](NC(=O)[C@@H]3Cc4cc5c(cc4CN3C(=O)N[C@H](C)c3ccccc3)O[C@@H](c3ccc(OCc4ccc(Cl)cc4Cl)cc3)CO5)C(=O)O)cc2)c1C`, the EC50 is reported as 133 nM.
